Results as given in US8546378B2, “5HT2C receptor modulator compositions and methods of use” (Arena Pharmaceuticals, Inc., priority 2004, dated 2013).

molecular target: T1, human 5-HT2C receptor (Homo sapiens, UniProt P28335); experiment: Intracellular IP3 Accumulation Assay; assay type: cell-based; settings: HEK293 cells transfected with human 5-HT2C receptor; averages of at least two trials; read-out: 5-HT2C (EC50) IP Accumulation Assay
T1 construct: expressed in transfected cells; host or cells: HEK293
T1 sequence (P28335 33-458): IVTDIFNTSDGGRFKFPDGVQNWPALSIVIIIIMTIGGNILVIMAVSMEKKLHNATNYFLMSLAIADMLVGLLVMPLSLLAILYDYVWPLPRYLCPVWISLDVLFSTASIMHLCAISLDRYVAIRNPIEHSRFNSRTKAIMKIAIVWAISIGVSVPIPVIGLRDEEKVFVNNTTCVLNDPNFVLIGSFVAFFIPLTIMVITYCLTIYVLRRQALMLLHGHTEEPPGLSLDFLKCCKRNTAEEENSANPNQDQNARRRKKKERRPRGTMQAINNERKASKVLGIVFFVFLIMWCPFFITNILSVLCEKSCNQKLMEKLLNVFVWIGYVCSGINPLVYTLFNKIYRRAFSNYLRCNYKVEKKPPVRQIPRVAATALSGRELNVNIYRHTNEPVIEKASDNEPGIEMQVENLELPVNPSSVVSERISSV
Procedure: HEK293 cells were transfected in 15 cm sterile dishes with or without (control) 16 μg of human 5-HT2C receptor cDNA using 25 μl of lipofectamine. Cells were then incubated for 3-4 hours at 37° C./5% CO2 and then transfection media was removed and replaced with 100 μl of DMEM. Cells were then plated onto 100 cm sterile dishes. The next day cells were plated into 96 well PDL microtiter plates at a density of 55K/0.2 ml. Six hours latter, media was exchanged with [^3H]inositol (0.25 μCi/well) in inositol free DMEM and plates were incubated at 37° C./5% CO2 overnight. The next day, wells were aspirated and 200 μl of DMEM containing test compound, 10 μM pargyline, and 10 mM LiCl was added to appropriate wells. Plates were then incubated at 37° C./5% CO2 for three hours followed aspiration and by addition of fresh ice cold stop solution (1M KOH, 19 mM Na-borate, 3.8 mM EDTA) to each well. Plates were kept on ice for 5-10 min and the wells were neutralized by addition of 200 μl of fresh ice cold neutralization solution (7.5% HCl). Plates were then frozen until further processing is desired. The lysate was then transferred into 1.5 ml Eppendorf tubes and 1 ml of chloroform/methanol (1:2) was added/tube. The solution was vortexed for 15 seconds and the upper phase was applied to a Biorad AG1-X8™ anion exchange resin (100-200 mesh). First, the resin was washed with water at 1:1.25 W/V and 0.9 ml of upper phase was loaded onto the column. The column was then washed with 10 ml of 5 mM myo-inositol and 10 ml of 5 mM Na-borate/60 mM Na-formate. The inositol tris phosphates were eluted into scintillation vials containing 10 ml of scintillation cocktail with 2 ml of 0.1 M formic acid/1 M ammonium formate. The columns were regenerated by washing with 10 ml of 0.1 M formic acid/3M ammonium formate and rinsed twice with dd H2O and stored at 4° C. in water.

Compound | EC50
CC1CNCCc2ccc(Br)cc21 (racemic) [Example 32, (R,S) 8-Bromo-1-methyl-2,3,4,5-tetrahydro-1H-3-benzazepine] | 2.1 nM
CC1CNCCc2cc(O)c(Br)cc21 (racemic) [Example 4, (R,S) 8-Bromo-7-hydroxy-1-methyl-2,3,4,5-tetrahydro-1H-3-benzazepine] | 2.1 nM
C=CCOc1cc2c(cc1Br)C(C)CNCC2 (racemic) [Example 5, (R,S) 7-Allyloxy-8-bromo-1-methyl-2,3,4,5-tetrahydro-1H-3-benzazepine] | 12.1 nM
CCC1CNCCc2cc(OC)c(Br)cc21 (racemic) [Example 19, (R,S) 8-Bromo-1-ethyl-7-methoxy-2,3,4,5-tetrahydro-1H-3-benzazepine] | 18 nM
C=CCOc1cc2c(cc1I)C(C)CNCC2 (racemic) [Example 12, (R,S) 7-Allyloxy-8-iodo-1-methyl-2,3,4,5-tetrahydro-1H-3-benzazepine] | 6.3 nM
COc1cc2c(cc1I)C(C)CNCC2 (racemic) [Example 3, (R,S) 8-Iodo-7-methoxy-1-methyl-2,3,4,5-taetrhydro-1H-3-benzazepine] | 1.4 nM
COc1cc2c(cc1Br)C(C)CNCC2 (racemic) [Example 1, (R,S) 8-Bromo-7-methoxy-1-methyl-2,3,4,5-tetrahydro-1H-3-benzazepine] | 4.2 nM
COc1cc2c(cc1Cl)C(C)CNCC2 (racemic) [Example 2, (R,S) 8-Chloro-7-methoxy-1-methyl-2,3,4,5-tetrahydro-1H-3-benzazepine] | 4.5 nM

system: Sprague-Dawley (SD) rats; experiment: Food intake in rats: selective 5HT-2C agonist alone, phentermine alone, or combination (Example 59); assay type: in vivo, rat; settings: female SD rats; perorally; 2 h food intake; FIG. 3A; two-way ANOVA, Bonferroni p<0.01
Procedure: Female (weight 225-250 g) and male (weight 250-275 g) Sprague-Dawley (SD) rats were purchased from Harlan (San Diego, Calif.) and housed 4 per cage in a temperature controlled environment under a 17 h/7 h light/dark cycle (lights out at 10:00 am). Water and Chow was available (LabDiet 8604) ad libitum for two weeks. The animals were handled for 2 occasions during this time. On the morning of the study, the animals were individually housed with no food or bedding and dosed perorally with 1 ml/kg of compound or vehicle 30 minutes prior to lights out. At lights out, the animals were given a pre-weighed amount of chow and placed near the food bowl. Two hours later the remaining chow was weighed and the study concluded.

Compound | effect on food intake in female rats
C[C@H]1CNCCc2ccc(Cl)cc21 [Compound B, (R)-8-chloro-1-methyl-2,3,4,5-tetrahydro-1H-3-benzazepine] | No other significant differences between groups
CC(C)(N)Cc1ccccc1 [phentermine, 1,1-Dimethyl-2-phenyl-ethylamine, reference compound] | No other significant differences between groups

same assay, conditions: male SD rats; perorally; 2 h food intake; FIG. 3B; two-way ANOVA, Bonferroni p<0.01

Compound | effect on food intake in male rats
C[C@H]1CNCCc2ccc(Cl)cc21 [Compound B, (R)-8-chloro-1-methyl-2,3,4,5-tetrahydro-1H-3-benzazepine] | No other significant differences between groups
CC(C)(N)Cc1ccccc1 [phentermine, 1,1-Dimethyl-2-phenyl-ethylamine, reference compound] | No other significant differences between groups
